According to patent US20230416239A1, “COMPOUNDS AND METHODS FOR TREATING A CYTOKINE-MEDIATED DISEASE” (CONSERVATOIRE NATIONAL DES ARTS ET MÉTIERS, priority 2020, published 2023):

Tests used:
TNFα = TNFα (Homo sapiens, UniProt P01375); assay: Immunoassay binding test, TNFa; details: compounds 100 to 0.78 μM; TNFα 10 ng/ml, receptor 100 ng/ml; read-out: BINDING TNF IC50
How it was run: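 ELISA-type binding test: receptor-coated plates blocked with 2% BSA, then cytokine (six-point dilution series) preincubated 2 h at 37 °C and bound overnight at 4 °C. Detection used biotinylated anti-cytokine antibody and avidin-HRP, read as OD at 450 nm. For IL-6, IL-6Ra was present at 200 ng/ml final.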

IL-4 = molecular target: T1, IL-4 (Homo sapiens, UniProt P05112); assay: Immunoassay binding test, IL-4; details: for IC50: IL-4 400 ng/ml, receptor 100 ng/ml, read-out: BINDING IL4 IC50
T1 sequence (P05112 25-153): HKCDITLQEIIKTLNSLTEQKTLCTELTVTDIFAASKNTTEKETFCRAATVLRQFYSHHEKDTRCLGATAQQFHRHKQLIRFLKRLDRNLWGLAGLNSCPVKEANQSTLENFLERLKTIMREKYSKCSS
How it was run: (§1)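 Detection used OD at 450 nm after biotinylated anti-cytokine antibody and avidin-HRP were applied to receptor-coated wells. Those wells had received, overnight at 4 °C, cytokine preincubated 2 h at 37 °C with compound at final 100 to 0.78 μM. IL-6 mixtures further contained IL-6Ra at 200 ng/ml final.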

IL-13 = IL-13 (Homo sapiens, UniProt P35225); assay: Immunoassay binding test, IL-13; details: for IC50: IL-13 400 ng/ml, receptor 100 ng/ml, read-out: BINDING IL13 IC50
How it was run: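 Receptor-coated plates; compounds (100 to 0.78 μM final) preincubated 2 h at 37° C with fixed cytokine, then bound to receptor overnight at 4° C. Bound cytokine detected with biotinylated anti-cytokine antibody and avidin-HRP, OD 450 nm.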

TNFa/TNFRI interaction = TNFa/TNFRI interaction (Homo sapiens, UniProt P01375); assay: TNFa/TNFRI interaction displacement test; format: binding; details: for Displacement (%): compounds at 50 μM, human TNFRI 100 ng/ml; for Displacement EC50 TNFa in presence of compound: Difference: Compound EC50 minus SPD304 EC50;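 as to Displacement EC50 TNFa in presence of compound: Difference: SPD304 reference at 20 µM final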
How it was run: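 Plates coated overnight at 4° C with human TNFRI (100 ng/ml) and blocked with 2% BSA, then test mixtures were incubated overnight at 4° C. Bound cytokine detected with biotinylated anti-cytokine antibody (2 h, 37° C) and avidin-HRP, read as OD at 450 nm.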

IL-6 = IL-6 (Homo sapiens, UniProt P05231); assay: Immunoassay binding test, IL-6 (gp130 receptor, IL-6Ra present); details: IL-6Ra 200 ng/ml
How it was run: as §1

Sequence of IL-6 (P05231 30-212, species assumed): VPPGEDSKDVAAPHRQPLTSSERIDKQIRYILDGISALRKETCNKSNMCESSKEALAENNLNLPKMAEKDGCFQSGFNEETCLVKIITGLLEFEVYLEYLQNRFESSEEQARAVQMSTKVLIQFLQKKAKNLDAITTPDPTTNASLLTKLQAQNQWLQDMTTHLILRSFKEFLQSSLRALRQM
Sequence of IL-13 (P35225 25-146, species assumed): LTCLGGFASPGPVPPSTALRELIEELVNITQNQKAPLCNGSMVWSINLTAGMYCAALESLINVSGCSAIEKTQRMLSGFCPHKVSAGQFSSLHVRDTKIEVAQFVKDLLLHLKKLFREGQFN
Sequence of TNFa/TNFRI interaction (P01375 77-233 limits assumed): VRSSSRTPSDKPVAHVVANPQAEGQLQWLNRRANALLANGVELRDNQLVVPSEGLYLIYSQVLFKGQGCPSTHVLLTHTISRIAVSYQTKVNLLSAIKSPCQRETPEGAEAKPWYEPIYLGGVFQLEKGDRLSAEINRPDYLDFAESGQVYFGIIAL
Sequence of TNFα (P01375 77-233 limits assumed, species assumed): as the sequence (P01375 77-233 limits assumed) above

IC50 (TNFα) [µM] | BINDING IL4 % Neutra at 100 μM (IL-4) [%] | IC50 (IL-4) [µM] | BINDING IL13 % Neutra at 100 μM (IL-13) [%] | IC50 (IL-13) [µM] | Displacement (%) (TNFa/TNFRI interaction) | BINDING IL6 % Neutra at 100 μM (IL-6) [%] | Displacement EC50 TNFa in presence of compound: Difference (TNFa/TNFRI interaction) | Compound
7.2 | 90.6 | 6.3 | 90.3 | 26.2 | 138 | 0 |  | CN(CCCCN(Cc1ccnc(F)c1)Cc1cn(S(=O)(=O)c2ccccc2)c2ccccc12)C1CCCCC1 [Compound 50, N1-cyclohexyl-N4-((2-fluoropyridin-4-yl)methyl)-N1-methyl-N4-((1-(phenylsulfonyl)-1H-indol-3-yl)methyl)butane-1,4-diamine]
19.9 | 97.3 | 4 | 93.6 | > 50 | 106 | 16.8 |  | FC(F)(F)c1cccc(-n2cc(CN(CCNC3CCCCC3)Cc3cccnc3)c3ccccc32)c1 [Compound 30]
11.5 | 84.1 | 14.6 | 32.1 | > 50 | 132 | 0 |  | CCCN(CCOCCN(Cc1cccnc1F)Cc1cn(S(=O)(=O)c2ccccc2)c2ccccc12)C1CCCC1 [Compound 106]
1.1 | 97.9 | 5 | 87.7 | > 50 | 133 | 20.7 |  | CN(CCCCN(Cc1cccnc1)Cc1cn(S(=O)(=O)c2ccccc2)c2ccccc12)C1CCCCC1 [Compound 17]
22.6 | 94.6 | 7.8 | 61.2 | > 50 | 99 | −15.3 |  | O=S(=O)(c1ccccc1)n1cc(CN(CCNC2CCCCC2)Cc2cccnc2)c2ccccc21 [Compound 25]
2.2 | 98.4 | 5.3 | 94.2 | 80.9 | 145 | 16.3 | Difference = 6 ng/ml | CN(CCCCN(Cc1ccncc1)Cc1cn(S(=O)(=O)c2ccccc2)c2ccccc12)C1CCCCC1 [Compound 18]
13.5 | 98.8 | 3.1 | 85.3 | > 50 | 158 | 3.6 | 6.3 ng/mL | CN(CCCCN(Cc1ccncc1)Cc1cn(-c2cccc(C(F)(F)F)c2)c2ccccc12)C1CCCCC1 [Compound 24]
17.4 | 81.9 | 7.9 | 56.3 | 35.5 | 152 | 0 |  | CCCN(CCOCCN(Cc1cccnc1F)Cc1cn(S(=O)(=O)c2ccccc2)c2ccccc12)C1CCCCC1 [Compound 101]
44.3 | 36.6 | > 100 | 0 |  | 45 | 3 |  | CC(=O)NCCCCN(Cc1cccnc1F)Cc1cn(S(=O)(=O)c2ccccc2)c2ccccc12 [Compound 85]
15 | 95.6 | 2 | 94.7 | 2.6 | 63 | 0 |  | O=S(=O)(c1ccccc1)n1cc(CN(CCCCNC2CCCCC2)Cc2cn(S(=O)(=O)c3ccccc3)c3ccccc23)c2ccccc21 [Compound 89]
23 | 96.4 | 5.5 | 91.1 | > 50 | 121 | 10.7 |  | FC(F)(F)c1cccc(-n2cc(CN(CCCNC3CCCCC3)Cc3cccnc3)c3ccccc32)c1 [Compound 10]
> 50 | 13.7 | > 100 | 0 |  | 35 | 0 |  | NS(=O)(=O)NCCCCN(Cc1cccnc1F)Cc1cn(S(=O)(=O)c2ccccc2)c2ccccc12 [Compound 77]
11.9 | 97.5 | 4.1 | 94.6 | 23.5 | 178 | 5.5 | 9.1 ng/mL | O=S(=O)(c1ccccc1)n1cc(CN(Cc2ccccn2)CC2CCCN(C3CCCCC3)C2)c2ccccc21 (centres unmarked) [Compound 1]
8.4 | 92.3 | 7.7 | 72.0 | > 50 | 117 | 2 |  | CN1CCN(S(=O)(=O)n2cc(CN(CCCCN(C)C3CCCCC3)Cc3cccnc3F)c3ccccc32)CC1 [Compound 92]
> 50 | 69.0 | 5.3 | 8 |  | 5 | 9 |  | O=S(=O)(c1ccccc1)n1cc(CN(CCCCNCc2cccnc2F)Cc2cn(S(=O)(=O)c3ccccc3)c3ccccc23)c2ccccc21 [Compound 88]
> 50 | 95.7 | 3.9 | 98.9 | 1.5 | 139 | 24.9 |  | FC(F)(F)c1cccc(-n2cc(CN(CCCCCNC3CCCCC3)Cc3cccnc3)c3ccccc32)c1 [Compound 38]
11.7 | 88.4 | 3 | 92.5 | 47.4 | 85 | 0 |  | CN(CCCCCN(Cc1cccc(F)n1)Cc1cn(S(=O)(=O)c2ccccc2)c2ccccc12)C1CCCCC1 [Compound 54, N1-cyclohexyl-N5-((6-fluoropyridin-2-yl)methyl)-N1-methyl-N5-((1-(phenylsulfonyl)-1H-indol-3-yl)methyl)pentane-1,5-diamine]
14.1 | 98 | 2.1 | 94.6 | 19.5 | 141 | 3.7 | 4.9 ng/mL | FC(F)(F)c1cccc(-n2cc(CN(CCCCNC3CCCCC3)Cc3cccnc3)c3ccccc32)c1 [Compound 21]
8.4 | 91.0 | 6 | 87.2 | 14.9 | 161 | 0 |  | O=S(=O)(c1ccccc1)n1cc(CN(CCCCNC2CCCCCC2)Cc2cccnc2F)c2ccccc21 [Compound 73, N′-cycloheptyl-N^4-((2-fluoropyridin-3-yl)methyl)-N^4-((1-(phenylsulfonyl)-1H-indol-3-yl)methyl)butane-1,4-diamine]
